Patent US4138554A, “7-[D-α-(4-Hydroxy-1,5-naphthyridine-3-carboxamido)-α-phenyl (and p-hydroxyphenyl)acetamido]-3-carbamoyloxymethyl-3-cephem-4-carboxylic acids” (priority 1977, dated 1979)
≈ marks a conversion by molar mass, not a printed value. Read-outs that look alike come from different tables or passages of the source.

Legend:
Type in all cases: cell-based
S. aureus = test: MIC by serial two-fold agar dilution (Mueller-Hinton agar), S. aureus; details: Staphylococcus aureus
Experimental: (§1) Minimum inhibitory concentrations (MIC) of BB-S520 were determined by serial two-fold agar dilution method using Steers' apparatus on Meuller-Hinton agar plate against 31 test organisms for the primary screening and also against 61 strains of Pseudomonas aeruginosa for the secondary evaluation. The results are shown in Table 1 and Table 2 along with those of BB-S514 and sulbenicillin.
(§2) Minimum inhibitory concentrations (MIC) of cephalosporins in the present study were determined by serial two-fold agar dilution method using Steers' apparatus on Mueller-Hinton agar plate against 31 test organisms for the primary screening and also against 61 strains of Pseudomonas aeruginosa for the secondary evaluation.

E. coli = test: MIC by serial two-fold agar dilution (Mueller-Hinton agar), E. coli; details: Escherichia coli, read-out: MIC
Experimental: as §1, §2

K. pneumoniae = test: MIC by serial two-fold agar dilution (Mueller-Hinton agar), K. pneumoniae; details: Klebsiella pneumoniae, K. pneumoniae A9977, Table 6
Experimental: as §1, §2

Klebsiella sp. = test: MIC by serial two-fold agar dilution (Mueller-Hinton agar), Klebsiella sp.; details: Klebsiella sp. A20452, Table 6; read-out: MIC
Experimental: as §1, §2

E. cloacae = test: MIC by serial two-fold agar dilution (Mueller-Hinton agar), E. cloacae; details: Enterobacter cloacae
Experimental: as §1, §2

P. mirabilis = test: MIC by serial two-fold agar dilution (Mueller-Hinton agar), P. mirabilis; details: Proteus mirabilis; P. mirabilis A9900, Table 6; read-out: MIC
Experimental: as §1, §2

P. vulgaris = test: MIC by serial two-fold agar dilution (Mueller-Hinton agar), P. vulgaris; details: Proteus vulgaris; P. vulgaris A9539, Table 6; read-out: MIC
Experimental: as §1, §2

P. morganii = test: MIC by serial two-fold agar dilution (Mueller-Hinton agar), P. morganii; details: Morganella morganii; P. morganii A9553, Table 6; read-out: MIC
Experimental: as §1, §2

S. enteritidis = test: MIC by serial two-fold agar dilution (Mueller-Hinton agar), S. enteritidis; details: Salmonella enterica; S. enteritidis A9531, Table 6; read-out: MIC
Experimental: as §1, §2

S. marcescens = test: MIC by serial two-fold agar dilution (Mueller-Hinton agar), S. marcescens; details: Serratia marcescens; S. marcescens A20019, Table 6; read-out: MIC
Experimental: as §1, §2

P. aeruginosa = test: MIC by serial two-fold agar dilution (Mueller-Hinton agar), P. aeruginosa, primary screening
Experimental: as §1, §2

Pseudomonas sp. = test: MIC by serial two-fold agar dilution (Mueller-Hinton agar), Pseudomonas sp.; details: Pseudomonas sp. A20358, Table 6
Experimental: as §2

## CC1(C)S[C@@H]2[C@H](NC(=O)C(C(=O)O)c3ccccc3)C(=O)N2[C@H]1C(=O)O (stereo partly shown) [Carbenicillin]
S. aureus; S. aureus BX-1633 A9606, Table 6, read-out: MIC
  MIC: 3.1 µg/mL (≈ 8.19 µM)
S. aureus; S. aureus Smith A9537, Table 6, read-out: MIC
  MIC: 0.2 µg/mL (≈ 0.529 µM)
S. aureus; S. aureus Smith A15907, Table 6
  MIC: 25 µg/mL (≈ 66.1 µM)
S. aureus; S. aureus Smith A20239, Table 6, read-out: MIC
  MIC: 3.1 µg/mL (≈ 8.19 µM)
S. aureus; S. aureus Smith A20240, Table 6, read-out: MIC
  MIC: 6.3 µg/mL (≈ 16.6 µM)
S. aureus; S. aureus Smith A20701, Table 6, read-out: MIC
  MIC: 25 µg/mL (≈ 66.1 µM)
E. coli; E. coli A9435, Table 6
  MIC: 6.3 µg/mL (≈ 16.6 µM)
E. coli; E. coli A9844, Table 6
  MIC: 0.2 µg/mL (≈ 0.529 µM)
E. coli; E. coli A10664, Table 6
  MIC: 0.8 µg/mL (≈ 2.11 µM)
E. coli; E. coli A20366, Table 6
  MIC: > 100 µg/mL
E. coli; E. coli A20520, Table 6
  MIC: 3.1 µg/mL (≈ 8.19 µM)
E. coli; E. coli A20732, Table 6
  MIC: 100 µg/mL (≈ 264 µM)
E. coli; E. coli A20898, Table 6
  MIC: > 100 µg/mL
E. coli; E. coli Juhl A15119, Table 6
  MIC: 1.6 µg/mL (≈ 4.23 µM)
E. coli; E. coli NIHJ, Table 6
  MIC: 0.4 µg/mL (≈ 1.06 µM)
K. pneumoniae
  MIC: 3.1 µg/mL (≈ 8.19 µM)
Klebsiella sp.
  MIC: 6.3 µg/mL (≈ 16.6 µM)
E. cloacae; E. cloacae A9656, Table 6
  MIC: 3.1 µg/mL (≈ 8.19 µM)
E. cloacae; E. cloacae A9657, Table 6
  MIC: 12.5 µg/mL (≈ 33 µM)
E. cloacae; E. cloacae A9659, Table 6
  MIC: 3.1 µg/mL (≈ 8.19 µM)
P. mirabilis
  MIC: 0.4 µg/mL (≈ 1.06 µM)
P. vulgaris
  MIC: 3.1 µg/mL (≈ 8.19 µM)
P. morganii
  MIC: > 100 µg/mL
S. enteritidis
  MIC: 0.8 µg/mL (≈ 2.11 µM)
S. marcescens
  MIC: 3.1 µg/mL (≈ 8.19 µM)
P. aeruginosa; P. aeruginosa A20229, Table 6
  MIC: 12.5 µg/mL (≈ 33 µM)
P. aeruginosa; Pseudomonas aeruginosa
  MIC: 12.5 µg/mL (≈ 33 µM)
P. aeruginosa; Pseudomonas aeruginosa, P. aeruginosa A9843, Table 6, read-out: MIC
  MIC: 25 µg/mL (≈ 66.1 µM)
P. aeruginosa; Pseudomonas aeruginosa, P. aeruginosa A9930, Table 6, read-out: MIC
  MIC: 25 µg/mL (≈ 66.1 µM)
P. aeruginosa; Pseudomonas aeruginosa, P. aeruginosa A20717, Table 6, read-out: MIC
  MIC: 100 µg/mL (≈ 264 µM)
Pseudomonas sp.
  MIC: 6.3 µg/mL (≈ 16.6 µM)
